These results are taken from ChEMBL document CHEMBL1150217, “Molecular structure and activity toward DNA of baicalein, a flavone constituent of the Asian herbal medicine "Sho-saiko-to"” (J Nat Prod, 2001).

Active and inactive are the calls of the source. The rule behind the calls is not given here.

The subject of one experiment is Calf thymus DNA. Nature of the experiment: Binding affinity to calf thymus DNA assessed as intercalation by agarose gel electrophoresis. Type of experiment: nucleic-acid assay. The conditions noted are these: Bos taurus.
The subject of experiment [1] is Human immunodeficiency virus. Nature of the experiment: Inhibition of HIV integrase.

For `O=c1cc(-c2ccccc2)oc2cc(O)c(O)c(O)c12`, the result (in the experiment with Calf thymus DNA; in experiment [1]) was Active.
